Legend:
PDE3A = PDE3A (Homo sapiens, UniProt Q14432); test: SAFETYscan Enzymatic PDE3A Inhibitor; assay type: biochemical
Excerpt: (§1) Supplement jm3c00155_si_002.xlsx, sheet "SAFETYScan" | column: RC50 (uM); Max Response

CHRM1 = molecular target: T1, CHRM1 (Homo sapiens, UniProt P11229); test: SAFETYscan Calcium Flux CHRM1 Antagonist; assay type: cell-based
T1 sequence (P11229 1-460): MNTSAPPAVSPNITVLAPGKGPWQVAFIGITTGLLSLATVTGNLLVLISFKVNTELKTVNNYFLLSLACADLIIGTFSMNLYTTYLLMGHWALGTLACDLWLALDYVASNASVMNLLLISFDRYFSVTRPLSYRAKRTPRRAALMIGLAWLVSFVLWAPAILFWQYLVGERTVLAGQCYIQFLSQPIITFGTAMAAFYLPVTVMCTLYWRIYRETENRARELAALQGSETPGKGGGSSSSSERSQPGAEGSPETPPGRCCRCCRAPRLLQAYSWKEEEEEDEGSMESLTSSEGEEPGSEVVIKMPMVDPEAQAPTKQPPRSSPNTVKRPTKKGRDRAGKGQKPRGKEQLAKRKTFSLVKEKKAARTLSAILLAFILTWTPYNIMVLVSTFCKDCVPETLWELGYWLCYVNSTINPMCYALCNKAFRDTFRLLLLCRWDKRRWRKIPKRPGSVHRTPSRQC
Excerpt: as §1

HTR2A = HTR2A (Homo sapiens, UniProt P28223); test: SAFETYscan Calcium Flux HTR2A Antagonist; assay type: cell-based
Chain of HTR2A (P28223 whole entry): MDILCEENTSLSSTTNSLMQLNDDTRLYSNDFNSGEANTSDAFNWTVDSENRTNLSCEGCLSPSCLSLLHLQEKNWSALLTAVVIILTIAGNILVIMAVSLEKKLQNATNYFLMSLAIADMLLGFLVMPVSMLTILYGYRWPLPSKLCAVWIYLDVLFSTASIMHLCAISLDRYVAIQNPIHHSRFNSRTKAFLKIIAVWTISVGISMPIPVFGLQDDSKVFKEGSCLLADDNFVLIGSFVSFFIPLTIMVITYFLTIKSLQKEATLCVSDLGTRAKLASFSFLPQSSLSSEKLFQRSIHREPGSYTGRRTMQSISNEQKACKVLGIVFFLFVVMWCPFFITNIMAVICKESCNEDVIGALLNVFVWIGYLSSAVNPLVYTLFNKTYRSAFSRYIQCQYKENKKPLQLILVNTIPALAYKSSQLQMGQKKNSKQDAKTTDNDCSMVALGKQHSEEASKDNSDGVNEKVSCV
Excerpt: as §1

OPRK1 = OPRK1 (Homo sapiens, UniProt P41145); test: SAFETYscan cAMP OPRK1 Agonist; assay type: cell-based
Excerpt: as §1

HTR1A = molecular target: T2, HTR1A (Homo sapiens, UniProt P08908); test: SAFETYscan cAMP HTR1A Antagonist; assay type: cell-based
T2 sequence (P08908 1-422): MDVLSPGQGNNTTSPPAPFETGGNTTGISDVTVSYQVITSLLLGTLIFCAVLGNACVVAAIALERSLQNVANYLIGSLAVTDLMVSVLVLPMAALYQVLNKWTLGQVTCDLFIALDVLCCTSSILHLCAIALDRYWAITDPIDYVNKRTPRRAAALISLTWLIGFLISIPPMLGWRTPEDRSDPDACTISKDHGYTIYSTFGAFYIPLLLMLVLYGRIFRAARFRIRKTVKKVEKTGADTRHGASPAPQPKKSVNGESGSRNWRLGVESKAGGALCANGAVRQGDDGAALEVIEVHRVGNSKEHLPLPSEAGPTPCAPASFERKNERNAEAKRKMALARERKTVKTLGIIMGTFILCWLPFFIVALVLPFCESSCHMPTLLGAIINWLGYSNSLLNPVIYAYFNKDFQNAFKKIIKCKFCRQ
Excerpt: as §1

NET = NET (Homo sapiens, UniProt P23975); test: SAFETYscan Transporter NET Blocker; assay type: cell-based
Chain of NET (P23975 whole entry): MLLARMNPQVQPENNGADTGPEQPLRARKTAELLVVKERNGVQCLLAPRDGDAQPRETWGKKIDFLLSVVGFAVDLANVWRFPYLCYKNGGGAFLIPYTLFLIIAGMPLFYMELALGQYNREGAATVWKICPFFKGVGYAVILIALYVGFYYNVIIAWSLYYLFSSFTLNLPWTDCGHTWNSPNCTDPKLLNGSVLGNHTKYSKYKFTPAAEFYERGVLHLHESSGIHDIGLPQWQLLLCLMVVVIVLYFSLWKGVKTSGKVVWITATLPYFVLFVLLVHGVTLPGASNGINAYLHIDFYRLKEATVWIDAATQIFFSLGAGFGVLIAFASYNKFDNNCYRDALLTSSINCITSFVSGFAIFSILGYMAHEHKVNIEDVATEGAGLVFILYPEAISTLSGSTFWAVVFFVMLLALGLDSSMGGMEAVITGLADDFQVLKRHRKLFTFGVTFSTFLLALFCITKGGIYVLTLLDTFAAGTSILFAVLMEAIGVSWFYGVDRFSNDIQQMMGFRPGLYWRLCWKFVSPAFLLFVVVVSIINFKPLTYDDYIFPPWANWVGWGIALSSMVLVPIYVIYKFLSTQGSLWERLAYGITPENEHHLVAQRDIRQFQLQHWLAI
Excerpt: as §1

HTR3A = molecular target: T3, HTR3A (Homo sapiens, UniProt P46098); test: SAFETYscan Ion Channel HTR3A Opener; assay type: cell-based
T3 sequence (P46098 24-478): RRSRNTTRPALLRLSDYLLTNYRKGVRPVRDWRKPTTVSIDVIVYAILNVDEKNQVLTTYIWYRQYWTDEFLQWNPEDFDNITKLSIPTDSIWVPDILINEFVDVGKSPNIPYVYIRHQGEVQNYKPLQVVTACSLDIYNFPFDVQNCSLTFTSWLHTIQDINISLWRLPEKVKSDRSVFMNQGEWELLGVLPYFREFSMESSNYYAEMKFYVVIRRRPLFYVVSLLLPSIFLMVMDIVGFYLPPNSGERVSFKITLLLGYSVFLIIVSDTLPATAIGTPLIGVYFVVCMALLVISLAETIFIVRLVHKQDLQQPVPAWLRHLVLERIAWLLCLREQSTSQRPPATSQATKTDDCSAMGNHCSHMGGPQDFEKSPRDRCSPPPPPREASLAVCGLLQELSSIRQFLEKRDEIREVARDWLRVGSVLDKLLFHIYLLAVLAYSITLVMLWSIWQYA
Excerpt: as §1

NAV1.5 = NAV1.5 (Homo sapiens, UniProt Q14524); test: SAFETYscan Ion Channel NAV1.5 Blocker; assay type: cell-based
Chain of NAV1.5 (Q14524 whole entry): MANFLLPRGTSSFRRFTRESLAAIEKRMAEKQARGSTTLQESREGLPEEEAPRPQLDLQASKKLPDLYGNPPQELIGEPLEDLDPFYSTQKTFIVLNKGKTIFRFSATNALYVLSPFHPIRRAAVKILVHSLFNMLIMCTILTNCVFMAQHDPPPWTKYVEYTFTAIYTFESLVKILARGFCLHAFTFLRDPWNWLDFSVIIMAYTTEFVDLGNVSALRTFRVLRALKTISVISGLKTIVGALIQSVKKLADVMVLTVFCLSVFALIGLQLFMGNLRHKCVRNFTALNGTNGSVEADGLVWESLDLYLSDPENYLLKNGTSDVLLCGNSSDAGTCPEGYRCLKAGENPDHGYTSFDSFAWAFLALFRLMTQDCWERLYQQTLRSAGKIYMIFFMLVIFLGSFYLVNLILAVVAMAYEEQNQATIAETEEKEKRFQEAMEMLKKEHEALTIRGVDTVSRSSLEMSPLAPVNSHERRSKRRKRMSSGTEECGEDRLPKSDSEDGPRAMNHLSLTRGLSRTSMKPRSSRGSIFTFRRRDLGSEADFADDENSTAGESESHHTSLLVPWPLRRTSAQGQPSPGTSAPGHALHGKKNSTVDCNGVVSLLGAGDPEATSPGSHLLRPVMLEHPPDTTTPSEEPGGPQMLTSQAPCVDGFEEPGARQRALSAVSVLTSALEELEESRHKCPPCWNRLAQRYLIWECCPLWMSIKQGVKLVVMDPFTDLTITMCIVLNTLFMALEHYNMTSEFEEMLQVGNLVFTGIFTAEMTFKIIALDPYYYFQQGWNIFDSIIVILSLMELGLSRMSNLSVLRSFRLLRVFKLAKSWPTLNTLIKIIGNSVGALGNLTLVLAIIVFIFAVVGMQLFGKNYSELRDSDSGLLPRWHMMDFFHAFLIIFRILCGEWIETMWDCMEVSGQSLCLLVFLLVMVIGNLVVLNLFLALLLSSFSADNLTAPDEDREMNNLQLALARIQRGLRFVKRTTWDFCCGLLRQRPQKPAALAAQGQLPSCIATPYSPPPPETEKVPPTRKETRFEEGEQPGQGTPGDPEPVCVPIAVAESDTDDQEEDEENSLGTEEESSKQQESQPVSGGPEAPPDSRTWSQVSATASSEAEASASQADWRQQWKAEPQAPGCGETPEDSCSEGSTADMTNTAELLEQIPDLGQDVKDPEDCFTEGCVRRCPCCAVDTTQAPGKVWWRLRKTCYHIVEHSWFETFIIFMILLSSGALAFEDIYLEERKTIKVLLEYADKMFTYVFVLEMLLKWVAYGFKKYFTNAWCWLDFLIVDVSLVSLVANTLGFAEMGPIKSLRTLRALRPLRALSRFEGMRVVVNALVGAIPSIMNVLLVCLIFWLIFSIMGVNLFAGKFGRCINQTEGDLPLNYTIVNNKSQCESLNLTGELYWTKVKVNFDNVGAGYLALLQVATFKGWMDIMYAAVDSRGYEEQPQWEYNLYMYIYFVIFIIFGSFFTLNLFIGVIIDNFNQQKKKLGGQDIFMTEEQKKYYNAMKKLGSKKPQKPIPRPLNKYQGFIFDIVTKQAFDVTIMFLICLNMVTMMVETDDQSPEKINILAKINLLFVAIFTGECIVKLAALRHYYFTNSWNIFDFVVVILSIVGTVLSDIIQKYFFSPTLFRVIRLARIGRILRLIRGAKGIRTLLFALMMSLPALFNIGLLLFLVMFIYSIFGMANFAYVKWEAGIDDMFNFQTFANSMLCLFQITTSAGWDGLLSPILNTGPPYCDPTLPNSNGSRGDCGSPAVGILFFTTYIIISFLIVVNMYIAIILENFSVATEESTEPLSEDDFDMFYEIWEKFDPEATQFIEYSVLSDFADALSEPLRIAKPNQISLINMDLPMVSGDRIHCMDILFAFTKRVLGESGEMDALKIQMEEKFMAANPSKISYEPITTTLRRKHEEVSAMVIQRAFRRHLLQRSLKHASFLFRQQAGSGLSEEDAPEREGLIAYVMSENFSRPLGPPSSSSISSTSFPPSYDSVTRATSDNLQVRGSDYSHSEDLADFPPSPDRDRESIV
Excerpt: as §1

SERT = SERT (Homo sapiens, UniProt P31645); test: SAFETYscan Transporter SERT Blocker; assay type: cell-based
Chain of SERT (P31645 whole entry, species assumed): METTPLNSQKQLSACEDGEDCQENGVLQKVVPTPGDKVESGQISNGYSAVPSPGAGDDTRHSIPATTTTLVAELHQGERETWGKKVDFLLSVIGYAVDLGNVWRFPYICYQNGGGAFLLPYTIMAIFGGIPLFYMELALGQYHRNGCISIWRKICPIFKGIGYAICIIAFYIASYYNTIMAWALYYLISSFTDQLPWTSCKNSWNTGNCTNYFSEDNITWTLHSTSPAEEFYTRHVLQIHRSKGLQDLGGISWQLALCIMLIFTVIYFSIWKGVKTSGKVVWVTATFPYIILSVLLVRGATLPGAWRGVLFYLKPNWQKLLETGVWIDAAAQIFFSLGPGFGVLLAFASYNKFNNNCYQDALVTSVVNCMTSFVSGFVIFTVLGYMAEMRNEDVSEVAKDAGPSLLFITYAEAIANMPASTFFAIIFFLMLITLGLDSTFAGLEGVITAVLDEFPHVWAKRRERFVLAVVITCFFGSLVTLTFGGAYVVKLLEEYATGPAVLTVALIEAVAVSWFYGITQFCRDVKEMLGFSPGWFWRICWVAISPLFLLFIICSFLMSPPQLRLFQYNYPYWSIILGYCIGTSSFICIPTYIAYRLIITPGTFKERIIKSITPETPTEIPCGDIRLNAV
Excerpt: as §1

OPRD1 = OPRD1 (Homo sapiens, UniProt P41143); test: SAFETYscan cAMP OPRD1 Antagonist; assay type: cell-based
Excerpt: as §1

ADRA1A = molecular target: T4, ADRA1A (Homo sapiens, UniProt P35348); test: SAFETYscan Calcium Flux ADRA1A Antagonist; assay type: cell-based
T4 sequence (P35348 1-466): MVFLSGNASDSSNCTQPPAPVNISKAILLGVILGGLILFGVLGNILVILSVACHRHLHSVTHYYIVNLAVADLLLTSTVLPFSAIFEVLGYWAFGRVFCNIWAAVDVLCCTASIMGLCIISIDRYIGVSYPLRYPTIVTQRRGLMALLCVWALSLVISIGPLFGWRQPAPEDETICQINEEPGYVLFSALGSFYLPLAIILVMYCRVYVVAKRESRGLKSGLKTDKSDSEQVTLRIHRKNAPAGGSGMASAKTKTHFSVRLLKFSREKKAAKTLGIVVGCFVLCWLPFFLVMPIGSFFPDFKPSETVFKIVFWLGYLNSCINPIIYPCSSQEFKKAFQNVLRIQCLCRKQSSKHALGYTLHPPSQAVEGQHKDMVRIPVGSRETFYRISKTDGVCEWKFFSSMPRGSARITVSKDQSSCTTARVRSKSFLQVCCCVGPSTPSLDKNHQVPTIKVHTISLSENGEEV
Excerpt: as §1

Chain of PDE3A (Q14432 whole entry, species assumed): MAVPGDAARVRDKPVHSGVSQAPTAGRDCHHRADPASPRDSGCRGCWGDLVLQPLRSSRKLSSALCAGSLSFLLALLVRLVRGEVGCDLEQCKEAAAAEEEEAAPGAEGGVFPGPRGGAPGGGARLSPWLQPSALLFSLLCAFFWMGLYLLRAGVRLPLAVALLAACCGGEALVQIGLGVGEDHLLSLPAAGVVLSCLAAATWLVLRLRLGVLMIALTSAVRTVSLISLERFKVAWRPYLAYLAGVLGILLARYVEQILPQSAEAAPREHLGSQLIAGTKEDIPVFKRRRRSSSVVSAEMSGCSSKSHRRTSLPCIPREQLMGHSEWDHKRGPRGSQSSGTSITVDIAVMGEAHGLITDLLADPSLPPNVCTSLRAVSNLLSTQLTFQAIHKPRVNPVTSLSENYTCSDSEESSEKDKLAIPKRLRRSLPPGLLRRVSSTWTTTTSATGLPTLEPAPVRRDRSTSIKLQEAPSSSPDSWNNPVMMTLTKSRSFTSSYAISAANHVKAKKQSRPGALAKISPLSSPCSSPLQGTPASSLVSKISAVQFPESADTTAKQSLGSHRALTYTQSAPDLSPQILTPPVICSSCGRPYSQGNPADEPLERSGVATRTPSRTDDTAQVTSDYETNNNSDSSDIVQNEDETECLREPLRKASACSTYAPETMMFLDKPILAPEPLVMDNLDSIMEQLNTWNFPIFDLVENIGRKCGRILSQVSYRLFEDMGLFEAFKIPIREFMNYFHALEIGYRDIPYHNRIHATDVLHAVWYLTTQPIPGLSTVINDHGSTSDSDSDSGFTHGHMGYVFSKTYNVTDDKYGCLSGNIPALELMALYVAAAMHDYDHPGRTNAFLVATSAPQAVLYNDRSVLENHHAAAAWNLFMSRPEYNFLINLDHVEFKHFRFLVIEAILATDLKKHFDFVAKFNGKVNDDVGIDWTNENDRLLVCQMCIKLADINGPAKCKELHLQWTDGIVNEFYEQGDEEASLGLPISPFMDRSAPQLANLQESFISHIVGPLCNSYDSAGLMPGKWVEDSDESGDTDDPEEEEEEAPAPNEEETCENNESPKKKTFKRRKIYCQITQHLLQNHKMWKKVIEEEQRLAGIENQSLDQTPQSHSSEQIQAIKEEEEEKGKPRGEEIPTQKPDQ

## Cn1c(=O)c2c(c3cc(Nc4ccnc(F)c4Cl)ccc31)N[C@@H](C1CC1)C(F)(F)CO2 [compound 17, (S)-10-((3-chloro-2-fluoropyridin-4-yl)amino)-2-cyclopropyl-3,3-difluoro-7-methyl-1,2,3,4-tetrahydro-[1,4]oxazepino[2,3-c]quinolin-6(7H)-one]
PDE3A; read-out: Max Response
  Emax: 2.67%
PDE3A; read-out: RC50 (IC50)
  IC50: > 10 µM
CHRM1
  IC50: > 10 µM
CHRM1; CHRM1, Calcium Flux, Antagonist, read-out: Max Response
  Emax: 1.21%
HTR2A
  IC50: > 10 µM
HTR2A; HTR2A, Calcium Flux, Antagonist, read-out: Max Response
  Emax: 5.28%
OPRK1
  EC50: > 10 µM
OPRK1; OPRK1, cAMP, Agonist, read-out: Max Response
  Emax: 21.1%
HTR1A
  IC50: > 10 µM
HTR1A; HTR1A, cAMP, Antagonist, read-out: Max Response
  Emax: 0%
NET
  IC50: > 10 µM
NET; NET, Transporter, Blocker, read-out: Max Response
  Emax: 0%
HTR3A
  EC50: > 10 µM
HTR3A; HTR3A, Ion Channel, Opener, read-out: Max Response
  Emax: 0%
NAV1.5
  IC50: > 10 µM
NAV1.5; NAV1.5, Ion Channel, Blocker, read-out: Max Response
  Emax: 2.06%
SERT
  IC50: > 10 µM
SERT; SERT, Transporter, Blocker, read-out: Max Response
  Emax: 0%
OPRD1
  IC50: > 10 µM
OPRD1; OPRD1, cAMP, Antagonist, read-out: Max Response
  Emax: 46%
ADRA1A
  IC50: > 10 µM
ADRA1A; ADRA1A, Calcium Flux, Antagonist, read-out: Max Response
  Emax: 0%
